Reference: patent publication US11319315B2, “Cyclohexyl acid triazole azoles as LPA antagonists” (BRISTOL-MYERS SQUIBB COMPANY, priority 2017, dated 2022)

What was measured:
nerve-injured mice = conditions: pretreatment; cited from earlier work
CD-1 female mice = test: LPA challenge with plasma histamine evaluation (acute in vivo histamine assay); design: species or system mouse; conditions: 1 mg/kg dose
Description: LPA Challenge with Plasma Histamine Evaluation.
Compound is dosed orally p.o. 2 hours to CD-1 female mice prior to the LPA challenge. The mice are then dosed via tail vein (IV) with 0.15 mL of LPA in 0.1% BSA/PBS (2 μg/μL). Exactly 2 minutes following the LPA challenge, the mice are euthanized by decapitation and the trunk blood is collected. These samples are collectively centrifuged and individual 75 μL samples are frozen at −20° C. until the time of the histamine assay.
The plasma histamine analysis was run by standard EIA (Enzyme Immunoassay) methods. Plasma samples were thawed and diluted 1:30 in 0.1% BSA in PBS. The EIA protocol for histamine analysis as outlined by the manufacturer was followed (Histamine EIA, Oxford Biomedical Research, EA #31).
The LPA used in the assay is formulated as follows: LPA (l-oleoyl-2-hydroxy-sn-glycero-3-phosphate (sodium salt), 857130P, Avanti Polar Lipids) is prepared in 0.1% BSA/PBS for total concentration of 2 μg/μL. 13 mg of LPA is weighed and 6.5 mL 0.1% BSA added, vortexed and sonicated for 1 hour until a clear solution is achieved.

human LPA1 = molecular target: T1, human LPA1 (Homo sapiens, UniProt Q92633); test: LPA1 functional antagonist assay (LPA-induced calcium flux in CHO cells overexpressing human LPA1); format: cell-based; conditions: inhibition of calcium flux induced by 10 nM LPA, CHO cells overexpressing human LPA1; read-out: hLPA1 IC50
T1 construct: expressed in transfected cells; host or cells: Chinese hamster ovary (CHO) cells
Summary of the method: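 CHO cells overexpressing human LPA1, dye-loaded 30 min at 37 °C, then given compound (0.08 nM–5 μM final, 0.5% DMSO) in HBSS/20 mM HEPES/0.1% fatty-acid-free BSA for 20 min at room temperature before 10 nM LPA. IC50 as 50% inhibition of LPA-evoked calcium flux, 4-parameter logistic fit.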

T1 sequence (Q92633 whole entry): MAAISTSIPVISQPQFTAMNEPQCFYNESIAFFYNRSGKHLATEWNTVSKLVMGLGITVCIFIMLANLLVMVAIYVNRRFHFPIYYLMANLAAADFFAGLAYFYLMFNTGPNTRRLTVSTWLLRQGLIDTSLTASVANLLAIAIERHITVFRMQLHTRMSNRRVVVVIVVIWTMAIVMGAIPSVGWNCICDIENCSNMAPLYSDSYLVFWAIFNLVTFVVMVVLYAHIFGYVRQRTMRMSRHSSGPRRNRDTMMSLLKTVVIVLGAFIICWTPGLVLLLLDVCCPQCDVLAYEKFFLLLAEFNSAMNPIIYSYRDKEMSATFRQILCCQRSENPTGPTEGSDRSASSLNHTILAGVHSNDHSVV

SMILES	allodynia and hyperalgesia (nerve-injured mice)	histamine, acute in vivo histamine assay in CD-1 mice (CD-1 female mice) [%]	IC50 (human LPA1) [µM]
C[C@@H](N)[C@H]1CC[C@H](C(=O)Nc2ccncc2)CC1 [Example Y-27632]	completely abolished	–	–
Cc1nc(-c2nnn(C)c2CNc2noc(CC3CC3)n2)ccc1O[C@H]1CCC[C@H](C(=O)O)C1 [Example 70]	–	−39	0.015
